Experimental data: publication PMC11036874, “In vitro characterization of [^125I]HY-3-24, a selective ligand for the dopamine D3 receptor” (Frontiers in Neuroscience, 2024)
pKi: −log10 of the molar value.

Tests used:
Assay in all cases: PDSP binding screen
serotonin 5-HT6 = target: T1, serotonin 5-HT6 (Homo sapiens, UniProt P50406); conditions: HCl salt
T1 construct: Psychoactive Drug Screening Program (PDSP)
Source text: (§1) The binding of HY-3-24 to various GPCRs was investigated through comprehensive screening by Psychoactive Drug Screening Program (PDSP) (Supplementary Table S1) ([Besnard et al., 2012]). These GPCRs included major neurotransmitter receptors family (e.g., dopamine, serotonin, histamine, opioid, muscarinic, adrenergic, sigma receptors, ɤ-amino-butyric acid type A, and benzodiazepine receptors) and transporters (e.g., dopamine, norepinephrine, and serotonin transporter).

Muscarinic M3 = target: T2, Muscarinic M3 (Homo sapiens, UniProt P20309); conditions: HCl salt
T2 construct: Psychoactive Drug Screening Program (PDSP)
Source text: as §1

opioid KOR = target: T3, opioid KOR (Homo sapiens, UniProt P41145); conditions: HCl salt
T3 construct: Psychoactive Drug Screening Program (PDSP)
Source text: as §1

adrenergic beta2 = target: T4, adrenergic beta2 (Homo sapiens, UniProt P07550); conditions: HCl salt
T4 construct: Psychoactive Drug Screening Program (PDSP)
Source text: as §1

serotonin transporter = target: T5, serotonin transporter (Homo sapiens, UniProt P31645); conditions: HCl salt
T5 construct: Psychoactive Drug Screening Program (PDSP)
Source text: as §1

serotonin 5-HT2B = serotonin 5-HT2B (Homo sapiens, UniProt P41595); conditions: HCl salt
Source text: as §1

adrenergic alpha2C = target: T6, adrenergic alpha2C (Homo sapiens, UniProt P18825); conditions: HCl salt
T6 construct: Psychoactive Drug Screening Program (PDSP)
Source text: as §1

[1] = target: ɤ-aminobutyric acid type A; conditions: HCl salt
Source text: as §1

dopamine D1 = dopamine D1 (Homo sapiens, UniProt P21728); conditions: HCl salt
Source text: as §1

serotonin 5-HT3 = serotonin 5-HT3 (Homo sapiens, UniProt P46098); conditions: HCl salt
Source text: as §1

dopamine D2 = dopamine D2 (Homo sapiens, UniProt P14416); conditions: HCl salt, [3H]N-methylspiperone
Source text: as §1

Muscarinic M2 = target: T7, Muscarinic M2 (Homo sapiens, UniProt P08172); conditions: HCl salt
T7 construct: Psychoactive Drug Screening Program (PDSP)
Source text: as §1

Muscarinic M5 = target: T8, Muscarinic M5 (Homo sapiens, UniProt P08912); conditions: HCl salt
T8 construct: Psychoactive Drug Screening Program (PDSP)
Source text: as §1

dopamine D3 = dopamine D3 (Homo sapiens, UniProt P35462); conditions: HCl salt, [3H]N-methylspiperone
Source text: as §1

[2] = target: benzodiazepine rat brain site; conditions: HCl salt
Source text: as §1

[3] = target: T9, dopamine active transporter (Homo sapiens, UniProt Q01959); conditions: HCl salt
T9 construct: Psychoactive Drug Screening Program (PDSP)
Source text: as §1

[4] = target: T10, norepinephrine transporter (Homo sapiens, UniProt P23975); conditions: HCl salt
T10 construct: Psychoactive Drug Screening Program (PDSP)
Source text: as §1

dopamine D4 = dopamine D4 (Homo sapiens, UniProt P21917); conditions: HCl salt
Source text: as §1

Muscarinic M4 = target: T11, Muscarinic M4 (Homo sapiens, UniProt P08173); conditions: HCl salt
T11 construct: Psychoactive Drug Screening Program (PDSP)
Source text: as §1

histamine H1 = target: T12, histamine H1 (Homo sapiens, UniProt P35367); conditions: HCl salt
T12 construct: Psychoactive Drug Screening Program (PDSP)
Source text: as §1

serotonin 5-HT2C = serotonin 5-HT2C (Homo sapiens, UniProt P28335); conditions: HCl salt
Source text: as §1

adrenergic alpha2B = target: T13, adrenergic alpha2B (Homo sapiens, UniProt P18089); conditions: HCl salt
T13 construct: Psychoactive Drug Screening Program (PDSP)
Source text: as §1

benzodiazepine receptor = conditions: HCl salt
Source text: as §1

serotonin 5-HT1D = serotonin 5-HT1D (Homo sapiens, UniProt P28221); conditions: HCl salt
Source text: as §1

sigma1 = target: T14, sigma1 (Homo sapiens, UniProt Q99720); conditions: HCl salt
T14 construct: Psychoactive Drug Screening Program (PDSP)
Source text: as §1

serotonin 5-HT2A = serotonin 5-HT2A (Homo sapiens, UniProt P28223); conditions: HCl salt
Source text: as §1

Chain of dopamine D1 (P21728 whole entry): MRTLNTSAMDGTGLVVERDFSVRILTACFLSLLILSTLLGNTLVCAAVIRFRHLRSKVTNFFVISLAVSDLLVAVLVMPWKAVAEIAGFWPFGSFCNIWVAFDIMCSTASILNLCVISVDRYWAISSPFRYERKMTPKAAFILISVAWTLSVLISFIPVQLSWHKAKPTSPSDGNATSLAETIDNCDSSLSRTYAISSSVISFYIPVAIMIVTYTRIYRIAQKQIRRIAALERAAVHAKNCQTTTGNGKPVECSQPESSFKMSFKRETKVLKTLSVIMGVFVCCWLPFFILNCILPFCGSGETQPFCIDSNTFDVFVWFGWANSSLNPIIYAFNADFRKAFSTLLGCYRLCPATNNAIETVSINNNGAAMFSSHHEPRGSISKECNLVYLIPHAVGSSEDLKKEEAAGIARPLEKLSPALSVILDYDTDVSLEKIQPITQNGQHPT
T2 sequence (P20309 whole entry): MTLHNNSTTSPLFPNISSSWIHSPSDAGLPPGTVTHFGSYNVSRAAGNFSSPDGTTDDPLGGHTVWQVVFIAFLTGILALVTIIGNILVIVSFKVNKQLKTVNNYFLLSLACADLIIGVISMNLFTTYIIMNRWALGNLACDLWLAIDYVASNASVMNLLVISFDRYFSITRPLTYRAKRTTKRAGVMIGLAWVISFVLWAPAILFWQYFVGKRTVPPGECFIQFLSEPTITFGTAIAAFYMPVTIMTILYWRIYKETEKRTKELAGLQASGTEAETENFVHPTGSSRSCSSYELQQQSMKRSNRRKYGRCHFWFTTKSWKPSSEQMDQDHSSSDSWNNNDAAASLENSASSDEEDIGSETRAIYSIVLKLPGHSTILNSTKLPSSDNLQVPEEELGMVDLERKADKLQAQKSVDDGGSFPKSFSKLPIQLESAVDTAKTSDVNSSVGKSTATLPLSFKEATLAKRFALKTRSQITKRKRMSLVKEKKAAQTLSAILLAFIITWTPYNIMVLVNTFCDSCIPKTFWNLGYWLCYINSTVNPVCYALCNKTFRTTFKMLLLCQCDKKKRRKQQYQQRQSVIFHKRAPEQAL
T10 sequence (P23975 whole entry, species assumed): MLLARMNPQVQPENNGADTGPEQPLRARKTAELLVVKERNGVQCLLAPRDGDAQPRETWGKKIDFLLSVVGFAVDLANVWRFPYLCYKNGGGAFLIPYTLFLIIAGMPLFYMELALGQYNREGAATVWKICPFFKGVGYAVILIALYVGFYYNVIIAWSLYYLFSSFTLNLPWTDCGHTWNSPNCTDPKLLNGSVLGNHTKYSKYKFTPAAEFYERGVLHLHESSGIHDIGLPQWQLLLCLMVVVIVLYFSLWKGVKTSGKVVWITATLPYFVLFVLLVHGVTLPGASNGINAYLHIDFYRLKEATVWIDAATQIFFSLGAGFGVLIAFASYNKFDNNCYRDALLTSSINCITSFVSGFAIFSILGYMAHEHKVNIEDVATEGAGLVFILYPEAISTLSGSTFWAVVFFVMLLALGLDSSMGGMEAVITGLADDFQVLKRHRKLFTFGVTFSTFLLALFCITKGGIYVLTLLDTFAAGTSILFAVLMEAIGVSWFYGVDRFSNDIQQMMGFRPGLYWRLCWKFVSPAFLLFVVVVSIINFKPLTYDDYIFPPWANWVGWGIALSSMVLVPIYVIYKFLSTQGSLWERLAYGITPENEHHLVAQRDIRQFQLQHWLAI
Chain of serotonin 5-HT3 (P46098 24-478): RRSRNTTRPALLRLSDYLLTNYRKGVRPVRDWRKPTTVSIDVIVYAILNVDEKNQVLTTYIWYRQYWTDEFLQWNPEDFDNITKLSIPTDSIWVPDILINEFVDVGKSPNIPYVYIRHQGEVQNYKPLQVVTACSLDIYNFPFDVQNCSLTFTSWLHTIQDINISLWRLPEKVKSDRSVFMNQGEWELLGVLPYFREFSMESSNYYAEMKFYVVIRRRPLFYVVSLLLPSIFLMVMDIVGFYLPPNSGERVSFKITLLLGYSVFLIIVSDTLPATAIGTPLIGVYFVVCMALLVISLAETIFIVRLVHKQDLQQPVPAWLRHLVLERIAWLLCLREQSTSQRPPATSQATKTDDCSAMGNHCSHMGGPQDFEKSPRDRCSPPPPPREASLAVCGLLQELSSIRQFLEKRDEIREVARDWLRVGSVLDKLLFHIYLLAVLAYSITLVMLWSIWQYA
T1 sequence (P50406 whole entry): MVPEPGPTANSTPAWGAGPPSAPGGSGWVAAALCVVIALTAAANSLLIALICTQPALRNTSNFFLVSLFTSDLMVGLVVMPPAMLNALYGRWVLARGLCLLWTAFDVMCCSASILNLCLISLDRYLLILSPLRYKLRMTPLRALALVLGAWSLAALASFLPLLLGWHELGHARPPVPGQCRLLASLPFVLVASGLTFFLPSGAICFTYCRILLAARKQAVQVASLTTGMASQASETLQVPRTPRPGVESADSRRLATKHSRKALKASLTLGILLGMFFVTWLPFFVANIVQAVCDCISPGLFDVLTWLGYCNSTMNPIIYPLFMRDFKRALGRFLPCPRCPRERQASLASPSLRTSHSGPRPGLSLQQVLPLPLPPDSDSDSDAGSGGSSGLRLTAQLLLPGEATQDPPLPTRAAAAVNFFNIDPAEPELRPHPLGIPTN
Chain of dopamine D2 (P14416 whole entry): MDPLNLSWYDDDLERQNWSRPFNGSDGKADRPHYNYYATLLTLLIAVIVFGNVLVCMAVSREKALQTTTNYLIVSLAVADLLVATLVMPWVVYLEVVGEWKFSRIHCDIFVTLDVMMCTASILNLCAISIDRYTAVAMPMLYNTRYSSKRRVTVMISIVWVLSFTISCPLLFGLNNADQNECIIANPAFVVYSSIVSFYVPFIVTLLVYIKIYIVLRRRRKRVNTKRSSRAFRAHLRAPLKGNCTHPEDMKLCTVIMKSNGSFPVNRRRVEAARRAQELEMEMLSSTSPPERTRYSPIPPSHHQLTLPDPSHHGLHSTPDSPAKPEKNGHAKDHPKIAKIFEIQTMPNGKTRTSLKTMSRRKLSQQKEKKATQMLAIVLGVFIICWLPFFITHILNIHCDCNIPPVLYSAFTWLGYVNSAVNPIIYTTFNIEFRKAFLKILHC
Chain of serotonin 5-HT1D (P28221 whole entry): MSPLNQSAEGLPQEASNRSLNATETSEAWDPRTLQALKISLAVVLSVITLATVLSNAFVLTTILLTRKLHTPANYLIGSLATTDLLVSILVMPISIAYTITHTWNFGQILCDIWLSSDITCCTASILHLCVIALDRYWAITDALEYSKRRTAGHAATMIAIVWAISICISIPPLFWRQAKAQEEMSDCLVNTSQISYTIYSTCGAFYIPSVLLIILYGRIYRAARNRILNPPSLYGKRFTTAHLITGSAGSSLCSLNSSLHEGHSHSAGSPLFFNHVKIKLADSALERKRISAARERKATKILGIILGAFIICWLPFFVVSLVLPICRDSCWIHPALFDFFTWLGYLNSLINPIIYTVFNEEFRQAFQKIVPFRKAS
Chain of dopamine D4 (P21917 whole entry): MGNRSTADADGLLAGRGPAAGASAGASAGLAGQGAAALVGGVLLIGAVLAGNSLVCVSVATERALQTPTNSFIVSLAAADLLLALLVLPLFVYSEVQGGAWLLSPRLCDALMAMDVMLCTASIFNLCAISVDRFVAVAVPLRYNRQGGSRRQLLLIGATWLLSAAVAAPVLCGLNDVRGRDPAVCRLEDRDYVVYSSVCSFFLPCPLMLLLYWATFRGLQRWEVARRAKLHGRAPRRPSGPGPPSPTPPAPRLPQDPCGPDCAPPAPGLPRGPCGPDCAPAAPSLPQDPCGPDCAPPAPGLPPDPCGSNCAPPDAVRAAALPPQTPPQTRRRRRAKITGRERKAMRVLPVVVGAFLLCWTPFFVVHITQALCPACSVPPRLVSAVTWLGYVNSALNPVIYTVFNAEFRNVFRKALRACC
Chain of serotonin 5-HT2A (P28223 whole entry): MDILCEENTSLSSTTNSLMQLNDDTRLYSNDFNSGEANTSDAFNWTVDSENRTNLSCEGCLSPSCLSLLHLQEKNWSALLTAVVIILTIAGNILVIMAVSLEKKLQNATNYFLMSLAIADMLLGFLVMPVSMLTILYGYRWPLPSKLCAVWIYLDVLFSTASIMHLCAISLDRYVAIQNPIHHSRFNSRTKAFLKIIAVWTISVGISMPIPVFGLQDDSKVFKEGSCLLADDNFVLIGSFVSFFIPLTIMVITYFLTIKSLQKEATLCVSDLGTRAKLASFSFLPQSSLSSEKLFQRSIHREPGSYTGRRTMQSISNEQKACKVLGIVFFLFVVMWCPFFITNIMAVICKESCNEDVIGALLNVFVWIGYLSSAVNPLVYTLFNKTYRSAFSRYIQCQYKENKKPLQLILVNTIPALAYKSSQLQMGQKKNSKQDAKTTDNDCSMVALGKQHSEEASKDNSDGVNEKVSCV
T8 sequence (P08912 whole entry): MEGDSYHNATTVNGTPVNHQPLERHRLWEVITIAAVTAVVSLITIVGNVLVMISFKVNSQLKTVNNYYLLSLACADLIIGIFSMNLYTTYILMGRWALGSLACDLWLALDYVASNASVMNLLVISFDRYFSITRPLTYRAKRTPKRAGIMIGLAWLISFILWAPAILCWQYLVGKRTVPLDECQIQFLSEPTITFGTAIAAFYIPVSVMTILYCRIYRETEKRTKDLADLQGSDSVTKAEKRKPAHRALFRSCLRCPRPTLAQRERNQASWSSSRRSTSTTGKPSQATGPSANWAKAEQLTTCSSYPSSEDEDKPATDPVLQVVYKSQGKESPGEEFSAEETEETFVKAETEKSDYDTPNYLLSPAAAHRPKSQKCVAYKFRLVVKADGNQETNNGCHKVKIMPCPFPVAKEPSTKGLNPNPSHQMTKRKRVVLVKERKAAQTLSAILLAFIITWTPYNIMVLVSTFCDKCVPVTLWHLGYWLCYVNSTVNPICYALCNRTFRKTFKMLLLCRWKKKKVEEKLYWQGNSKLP

CCN(CCCNC(=O)c1ccc(-c2ccncc2)cc1)CCNC(=O)c1cc(I)cc(OC)c1OC [HY-3-24, N-(2-(Ethyl(3-(4-(pyridin-4-yl)benzamido)propyl)amino)ethyl)-5-iodo-2,3-dimethoxybenzamide] was tested, and the pKi (serotonin 5-HT6) was 5.98, the pKi (Muscarinic M3) was 5.75 and the pKi (opioid KOR) was 5.81. The pKi (adrenergic beta2) was 5.23, the pKi (serotonin transporter) was 6.17 and the pKi (serotonin 5-HT2B) was 7.42. For the same compound, the pKi (adrenergic alpha2C) was 5.72, the pKi [1] was 5.95 and the “Ki D1” value (dopamine D1) was “N.A. (not active, less than 50% inhibition in primary binding assays at 10 µM)”. For the same compound, the pKi (serotonin 5-HT3) was 6.04, the pKi (dopamine D2) was 7.37 and the pKi (Muscarinic M2) was 6.08. For the same compound, the pKi (Muscarinic M5) was 6.93, the pKi (dopamine D3) was 8.92 and the “Ki benzodiazepine rat brain site” value [2] was “N.A. (not active, less than 50% inhibition in primary binding assays at 10 µM)”. The pKi [3] was 5.95, the pKi [4] was 5.23 and the pKi (dopamine D4) was 5.73. For the same compound, the pKi (Muscarinic M4) was 6.26, the pKi (histamine H1) was 6.61 and the pKi (serotonin 5-HT2C) was 6.21. For the same compound, the pKi (adrenergic alpha2B) was 5.97, the pKi (benzodiazepine receptor) was 5.25 and the pKi (serotonin 5-HT1D) was 5.77. For the same compound, the pKi (sigma1) was 5.71 and the pKi (serotonin 5-HT2A) was 6.51.
